Here are results for 13 molecules from US20240425518A1, “N-MACROCYCLIC AMIDE COMPOUNDS, PREPARATION METHODS THEREOF AND APPLICATIONS THEREOF AS MEDICAMENTS” (Chengdu FANXI Biopharma Co., Ltd., priority 2023, published 2024).

What all share (assay type): biochemical
The target of assay [1] is T1, JAK3 (h) (Homo sapiens, UniProt P52333).
T1 construct: purchased Eurofins
T1 sequence (P52333 1-1124): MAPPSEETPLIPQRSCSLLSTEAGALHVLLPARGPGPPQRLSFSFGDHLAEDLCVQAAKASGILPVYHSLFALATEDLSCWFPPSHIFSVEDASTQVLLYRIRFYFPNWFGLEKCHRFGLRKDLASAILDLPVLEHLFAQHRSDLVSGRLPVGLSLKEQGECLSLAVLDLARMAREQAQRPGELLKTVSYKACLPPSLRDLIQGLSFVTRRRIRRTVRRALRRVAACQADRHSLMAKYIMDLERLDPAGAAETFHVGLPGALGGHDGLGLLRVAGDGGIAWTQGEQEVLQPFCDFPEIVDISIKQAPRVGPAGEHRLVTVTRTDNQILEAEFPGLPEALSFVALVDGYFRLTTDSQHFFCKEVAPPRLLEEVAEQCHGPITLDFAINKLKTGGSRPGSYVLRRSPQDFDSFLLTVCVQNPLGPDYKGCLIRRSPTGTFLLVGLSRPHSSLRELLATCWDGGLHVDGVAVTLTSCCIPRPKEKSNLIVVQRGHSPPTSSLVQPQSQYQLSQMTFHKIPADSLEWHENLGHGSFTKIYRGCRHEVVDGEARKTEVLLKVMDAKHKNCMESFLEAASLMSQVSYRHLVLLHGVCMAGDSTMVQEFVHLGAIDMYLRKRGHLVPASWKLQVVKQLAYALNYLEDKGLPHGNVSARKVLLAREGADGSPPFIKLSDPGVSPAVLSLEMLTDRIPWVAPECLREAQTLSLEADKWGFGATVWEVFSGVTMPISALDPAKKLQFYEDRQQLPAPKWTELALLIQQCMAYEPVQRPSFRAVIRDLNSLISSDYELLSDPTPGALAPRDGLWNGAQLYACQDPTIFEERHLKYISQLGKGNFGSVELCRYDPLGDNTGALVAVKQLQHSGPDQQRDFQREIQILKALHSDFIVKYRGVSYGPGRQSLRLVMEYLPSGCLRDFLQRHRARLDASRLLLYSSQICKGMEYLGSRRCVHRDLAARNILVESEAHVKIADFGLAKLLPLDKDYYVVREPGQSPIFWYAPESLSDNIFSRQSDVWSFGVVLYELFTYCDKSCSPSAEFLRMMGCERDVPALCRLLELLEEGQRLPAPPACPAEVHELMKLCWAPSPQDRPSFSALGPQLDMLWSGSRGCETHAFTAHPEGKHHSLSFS
The assay can be described thus: Radioisotope labeling kinase assay (Eurofins), JAK3. Conditions: 1 μM compound; read-out: Inhibitory activity per unit concentration/Activity % JAK3 (h). As to the method:
(§1) An activity to a human recombinant protein kinase of a series of compounds was determined by a radioisotope labeling method, which was provided by Eurofins Company. A compound to be detected was mixed with a corresponding protein kinase buffer (20 mM propyl sulfonate (MOPS, […].), 1 mM EDTA, 0.10 β-mercaptoethanol, 0.010 Brij-35, […], and 1 mg/mL BSA), the mixture was added into a reaction system (100 μM reaction substrate […], 8 mM MOPS with a pH value of 7.0, 10 mM MgAcetate, 0.2 mM EDTA, and a certain concentration of γ-^33P-ATP). After adding an MgATP composite solution, the reaction was started at room temperature for 40 minutes, and the reaction was terminated by adding 5 μl of […] solution. Then, 10 μl of reaction solution was dropwise added onto a filter and washed with 75 mM phosphoric acid solution for three times, 5 minutes each time, then washed with methanol once again, and dried and subjected to scintillation counting.

Assay [2] deals with T2, Ab1 (h) (Homo sapiens, UniProt P00519).
T2 construct: purchased Eurofins
Description: Radioisotope labeling kinase assay (Eurofins), Ab1. Conditions: 1 μM compound; read-out: Inhibitory activity per unit concentration/Activity % Ab1 (h). How it is done:
as §1

The target of assay [3] is T3, Flt3 (D835Y) (h) (Homo sapiens, UniProt P36888, D835Y).
T3 construct: purchased Eurofins
T3 sequence (P36888 27-993 D835Y): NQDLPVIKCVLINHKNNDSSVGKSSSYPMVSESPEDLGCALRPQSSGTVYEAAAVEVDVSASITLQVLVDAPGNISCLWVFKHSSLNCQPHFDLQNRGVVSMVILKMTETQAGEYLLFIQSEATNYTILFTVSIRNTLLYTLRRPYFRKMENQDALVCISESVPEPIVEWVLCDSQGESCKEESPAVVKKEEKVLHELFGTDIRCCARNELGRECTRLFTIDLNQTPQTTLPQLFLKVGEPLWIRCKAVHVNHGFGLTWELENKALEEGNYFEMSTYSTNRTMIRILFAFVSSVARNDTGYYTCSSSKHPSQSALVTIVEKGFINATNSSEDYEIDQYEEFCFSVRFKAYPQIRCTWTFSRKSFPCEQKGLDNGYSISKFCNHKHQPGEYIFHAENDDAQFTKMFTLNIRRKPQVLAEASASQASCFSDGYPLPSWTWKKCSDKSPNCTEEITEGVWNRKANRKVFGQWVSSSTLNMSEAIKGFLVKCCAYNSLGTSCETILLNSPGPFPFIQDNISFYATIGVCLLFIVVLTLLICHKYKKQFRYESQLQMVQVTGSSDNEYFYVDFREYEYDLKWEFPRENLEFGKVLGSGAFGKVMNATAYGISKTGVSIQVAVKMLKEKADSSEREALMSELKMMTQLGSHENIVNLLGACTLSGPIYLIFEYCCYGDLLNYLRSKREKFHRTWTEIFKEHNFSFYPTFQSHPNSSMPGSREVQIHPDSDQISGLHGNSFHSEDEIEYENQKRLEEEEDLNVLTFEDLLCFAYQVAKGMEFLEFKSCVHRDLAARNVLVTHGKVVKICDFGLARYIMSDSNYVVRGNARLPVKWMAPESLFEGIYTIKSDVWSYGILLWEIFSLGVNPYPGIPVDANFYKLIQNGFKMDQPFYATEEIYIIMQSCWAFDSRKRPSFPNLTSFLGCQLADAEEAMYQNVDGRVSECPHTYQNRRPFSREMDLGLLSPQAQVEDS
Description: Radioisotope labeling kinase assay (Eurofins), Flt3 (D835Y). Conditions: 1 μM compound; read-out: Inhibitory activity per unit concentration/Activity % Flt3 (D835Y) (h). How it is done:
as §1

Assay [4] deals with T4, Flt3 (h) (Homo sapiens, UniProt P36888).
T4 construct: purchased Eurofins
T4 sequence (P36888 27-993): T3 sequence (P36888 27-993 D835Y) with Y809D
Description: Radioisotope labeling kinase assay (Eurofins), Flt3. The settings on record: 1 μM compound; read-out: Inhibitory activity per unit concentration/Activity % Flt3 (h). How it is done:
as §1

For assay [5], the target named is T5, BTK (h) (Homo sapiens, UniProt Q06187).
T5 construct: purchased Eurofins
The assay can be described thus: Radioisotope labeling kinase assay (Eurofins), BTK. The settings on record: 1 μM compound; read-out: Inhibitory activity per unit concentration/Activity % BTK (h). As to the method:
as §1

Changes are numbered by the printed parent chain.

T2 sequence (P00519 whole entry): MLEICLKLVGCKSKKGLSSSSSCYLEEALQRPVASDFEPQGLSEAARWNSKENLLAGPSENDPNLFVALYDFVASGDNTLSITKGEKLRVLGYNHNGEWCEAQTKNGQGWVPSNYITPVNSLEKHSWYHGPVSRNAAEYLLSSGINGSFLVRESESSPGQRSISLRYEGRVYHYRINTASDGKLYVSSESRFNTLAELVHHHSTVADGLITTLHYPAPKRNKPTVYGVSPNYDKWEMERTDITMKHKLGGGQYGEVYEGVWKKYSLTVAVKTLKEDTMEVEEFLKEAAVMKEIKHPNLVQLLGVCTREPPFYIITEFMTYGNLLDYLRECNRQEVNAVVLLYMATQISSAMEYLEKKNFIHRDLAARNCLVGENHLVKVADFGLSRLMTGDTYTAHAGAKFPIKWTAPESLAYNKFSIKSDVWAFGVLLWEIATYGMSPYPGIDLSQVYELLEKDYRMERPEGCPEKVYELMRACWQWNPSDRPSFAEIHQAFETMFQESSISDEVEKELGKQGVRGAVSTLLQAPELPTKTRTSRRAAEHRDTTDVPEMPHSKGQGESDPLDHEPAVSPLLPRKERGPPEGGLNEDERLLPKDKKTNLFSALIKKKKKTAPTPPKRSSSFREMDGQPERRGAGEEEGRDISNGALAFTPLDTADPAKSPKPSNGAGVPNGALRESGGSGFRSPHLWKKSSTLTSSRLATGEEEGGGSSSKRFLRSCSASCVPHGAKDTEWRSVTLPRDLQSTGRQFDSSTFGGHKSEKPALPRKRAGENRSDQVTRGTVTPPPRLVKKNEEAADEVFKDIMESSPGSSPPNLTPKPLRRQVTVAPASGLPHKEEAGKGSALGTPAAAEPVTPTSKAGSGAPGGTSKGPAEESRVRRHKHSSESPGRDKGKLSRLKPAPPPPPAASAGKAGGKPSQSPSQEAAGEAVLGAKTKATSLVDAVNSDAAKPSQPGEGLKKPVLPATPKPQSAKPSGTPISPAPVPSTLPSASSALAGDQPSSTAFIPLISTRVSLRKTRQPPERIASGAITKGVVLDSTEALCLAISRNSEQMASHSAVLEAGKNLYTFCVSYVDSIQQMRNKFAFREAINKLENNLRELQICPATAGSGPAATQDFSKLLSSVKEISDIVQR
T5 sequence (Q06187 whole entry): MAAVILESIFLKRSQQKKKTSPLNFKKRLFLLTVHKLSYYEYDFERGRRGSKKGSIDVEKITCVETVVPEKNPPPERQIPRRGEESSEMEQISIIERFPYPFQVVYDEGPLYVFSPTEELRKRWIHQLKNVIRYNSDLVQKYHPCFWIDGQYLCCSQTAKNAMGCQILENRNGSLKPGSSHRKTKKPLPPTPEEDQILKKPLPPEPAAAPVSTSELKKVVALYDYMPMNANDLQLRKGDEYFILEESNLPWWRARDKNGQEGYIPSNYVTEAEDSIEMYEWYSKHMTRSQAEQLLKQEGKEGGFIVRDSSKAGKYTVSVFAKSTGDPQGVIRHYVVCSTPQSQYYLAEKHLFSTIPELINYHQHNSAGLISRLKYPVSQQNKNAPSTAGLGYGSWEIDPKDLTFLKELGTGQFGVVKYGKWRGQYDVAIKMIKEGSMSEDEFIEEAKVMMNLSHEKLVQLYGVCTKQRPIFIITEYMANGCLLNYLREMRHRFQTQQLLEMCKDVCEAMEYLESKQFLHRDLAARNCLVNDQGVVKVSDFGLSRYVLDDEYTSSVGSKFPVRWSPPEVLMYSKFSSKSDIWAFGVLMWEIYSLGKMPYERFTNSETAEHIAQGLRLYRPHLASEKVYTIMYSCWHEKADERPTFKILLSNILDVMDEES

`C=CC(=O)Nc1cc2cc(c1)Nc1nccc(n1)-c1cccc(c1)COC/C=C/CN(C)C2` [XVI-31]: the activity at 1 µM in assay [1] turned out to be 57%; in assay [2] it was 50%; in assay [3], 2%; in assay [4], 7%; in assay [5] it was 86%.

As to `CN1C/C=C/COCc2cccc(c2)-c2ccnc(n2)Nc2cc(cc(NC(=O)/C=C/c3ccc(C#N)cc3)c2)C1` [XVI-27], the activity at 1 µM in assay [1] stood at 52%; in assay [2], 45%; in assay [3] it was 2%; in assay [4], 8%; in assay [5], 77%.

On to `N#Cc1ccc(/C=C/C(=O)Nc2cc3cc(c2)Nc2nccc(n2)-c2cccc(c2)COC/C=C/COC3)cc1` [XVI-2], for which the activity at 1 µM in assay [1] turned out to be 56%; in assay [2], 42%; in assay [3], 3%; in assay [4] it was 12%; in assay [5], 61%.

Take `O=C(/C=C/COc1ccc2cc1Nc1nccc(n1)-c1cccc(c1)COC/C=C/COC2)N1CCOCC1` [XVI-22]: the activity at 1 µM in assay [1] was found to be 100%; in assay [2], 81%; in assay [3], 41%; in assay [4], 96%; in assay [5], 82%.

Turning to `CN1C/C=C/COCc2cccc(c2)-c2ccnc(n2)Nc2cc(cc(NC(=O)C#CCN3CCOCC3)c2)C1` [XVII-5], the activity at 1 µM stood at 60% in assay [1]; 45% in assay [2]; 1% in assay [3]; 4% in assay [4]; 72% in assay [5].

Take `CN1C/C=C/COCc2cccc(c2)-c2ccnc(n2)Nc2cc(N)cc(c2)C1` [XIII-2]: the activity at 1 µM in assay [1] came to 77%; in assay [2] it was 57%; in assay [3], 1%; in assay [4], 7%; in assay [5] it was 71%.

Turning to `O=C(/C=C/CN1CCC(O)C1)Nc1cc2cc(c1)Nc1nccc(n1)-c1cccc(c1)COC/C=C/COC2` (centres unmarked) [XVI-18], the activity at 1 µM in assay [1] is 8%; in assay [2], 2%; in assay [3] it was 4%; in assay [4], 19%; in assay [5], 17%.

With `O=C(/C=C/COc1cc2cc(c1)Nc1nccc(n1)-c1cccc(c1)COC/C=C/COC2)N1CCOCC1` [XVI-14], the activity at 1 µM is 21% in assay [1]; 46% in assay [2]; 3% in assay [3]; 8% in assay [4]; 47% in assay [5].

In the case of `C1=C/COCc2ccc(O/C=C/CN3CCCC3)c(c2)Nc2nccc(n2)-c2cccc(c2)CCC/1` [XVI-34], the activity at 1 µM in assay [1] was found to be 87%; in assay [2], 98%; in assay [3], 79%; in assay [4], 125%; in assay [5] it was 87%.

`O=C(/C=C/c1cnc[nH]1)Nc1cc2cc(c1)Nc1nccc(n1)-c1cccc(c1)COC/C=C/COC2` [XVI-7]: the activity at 1 µM was 21% in assay [1]; 17% in assay [2]; -1% in assay [3]; 7% in assay [4]; 45% in assay [5].

As for `C1=C/COCc2cccc(c2)-c2ccnc(n2)Nc2cc(cc(OC/C=C/CN3CCOCC3)c2)COC/1` [XVI-16], the activity at 1 µM was 32% in assay [1]; 19% in assay [2]; -1% in assay [3]; 20% in assay [4]; 48% in assay [5].

Turning to `CCCC#CC(=O)Nc1cc2cc(c1)Nc1nccc(n1)-c1cccc(c1)COC/C=C/CN(C)C2` [XVII-4], the activity at 1 µM is 83% in assay [1]; 52% in assay [2]; 3% in assay [3]; 7% in assay [4]; 80% in assay [5].

Consider `O=C(/C=C/CNC1CCOC1)Nc1cc2cc(c1)Nc1nccc(n1)-c1cccc(c1)COC/C=C/COC2` (centres unmarked) [XVI-15], for which the activity at 1 µM came to 6% in assay [1]; 7% in assay [2]; 6% in assay [3]; 20% in assay [4]; 12% in assay [5].
